Laboratory results reported in the kinase profiling compilation of Christmann-Franck et al. (2016).

Experiments:
Assay in all cases: radiometric filter-binding kinase assay
[1] = system: SGK1 (human), O00141 [S422D]
MST4 (human) = MST4 (human) (UniProt Q9P289)
RPS6KA3 KD1 KD2 (human) = RPS6KA3 KD1 KD2 (human) (UniProt P51812)
PRKCZ (human) = PRKCZ (human) (UniProt Q05513)
MARK3 (human) = MARK3 (human) (UniProt P27448)
PRKCA (human) = PRKCA (human) (UniProt P17252)
MAPK3 (human) = MAPK3 (human) (UniProt P27361)
PLK1 (human) = PLK1 (human) (UniProt P53350)
RPS6KA1 KD1 KD2 (human) = RPS6KA1 KD1 KD2 (human) (UniProt Q15418)
Chain of RPS6KA1 KD1 KD2 (human) (Q15418 whole entry, looked up): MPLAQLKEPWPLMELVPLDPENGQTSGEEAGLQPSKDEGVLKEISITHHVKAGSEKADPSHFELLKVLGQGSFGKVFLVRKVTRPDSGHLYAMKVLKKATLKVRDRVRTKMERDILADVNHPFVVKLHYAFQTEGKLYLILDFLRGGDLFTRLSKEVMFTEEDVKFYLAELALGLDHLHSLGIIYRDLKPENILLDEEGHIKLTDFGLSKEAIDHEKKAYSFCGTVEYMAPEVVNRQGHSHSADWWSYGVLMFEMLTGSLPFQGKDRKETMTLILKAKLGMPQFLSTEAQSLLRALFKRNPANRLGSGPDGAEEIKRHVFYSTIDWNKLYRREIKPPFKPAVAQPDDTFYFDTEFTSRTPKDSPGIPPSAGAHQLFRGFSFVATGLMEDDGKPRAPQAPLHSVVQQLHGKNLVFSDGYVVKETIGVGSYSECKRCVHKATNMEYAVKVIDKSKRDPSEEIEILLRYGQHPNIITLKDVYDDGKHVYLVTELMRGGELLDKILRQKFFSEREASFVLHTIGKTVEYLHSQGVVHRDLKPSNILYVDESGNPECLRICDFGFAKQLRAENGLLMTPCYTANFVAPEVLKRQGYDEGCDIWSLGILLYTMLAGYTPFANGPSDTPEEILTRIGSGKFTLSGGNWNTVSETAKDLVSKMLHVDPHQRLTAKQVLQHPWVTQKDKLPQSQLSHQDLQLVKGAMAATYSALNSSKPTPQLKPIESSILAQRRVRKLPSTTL

RPS6KA5 KD1 KD2 (human) = RPS6KA5 KD1 KD2 (human) (UniProt O75582)
Chain of RPS6KA5 KD1 KD2 (human) (O75582 whole entry, looked up): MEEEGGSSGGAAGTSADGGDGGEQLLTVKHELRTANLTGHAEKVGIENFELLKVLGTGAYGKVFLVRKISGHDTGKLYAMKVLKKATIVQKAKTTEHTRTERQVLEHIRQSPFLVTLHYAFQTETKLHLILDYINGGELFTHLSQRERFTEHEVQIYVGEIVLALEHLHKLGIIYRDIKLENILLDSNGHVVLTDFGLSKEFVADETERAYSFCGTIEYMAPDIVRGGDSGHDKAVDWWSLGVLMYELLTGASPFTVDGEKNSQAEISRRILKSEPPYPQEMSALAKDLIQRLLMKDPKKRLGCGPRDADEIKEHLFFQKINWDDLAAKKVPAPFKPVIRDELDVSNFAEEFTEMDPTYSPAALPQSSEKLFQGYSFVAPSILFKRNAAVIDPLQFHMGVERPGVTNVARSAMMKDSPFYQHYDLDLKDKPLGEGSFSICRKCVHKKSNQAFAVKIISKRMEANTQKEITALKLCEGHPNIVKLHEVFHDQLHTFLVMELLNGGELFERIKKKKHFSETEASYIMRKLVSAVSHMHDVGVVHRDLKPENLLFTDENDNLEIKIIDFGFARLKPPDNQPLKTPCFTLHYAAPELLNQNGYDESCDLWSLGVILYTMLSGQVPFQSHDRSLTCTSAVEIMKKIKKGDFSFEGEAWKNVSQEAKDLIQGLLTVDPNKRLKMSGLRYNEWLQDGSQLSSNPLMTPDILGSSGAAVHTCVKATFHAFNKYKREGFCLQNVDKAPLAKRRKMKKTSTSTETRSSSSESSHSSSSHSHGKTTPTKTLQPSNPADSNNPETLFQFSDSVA

FLT1 (human) = FLT1 (human) (UniProt P17948)
STK3 (human) = STK3 (human) (UniProt Q13188)
Chain of STK3 (human) (Q13188 whole entry, looked up): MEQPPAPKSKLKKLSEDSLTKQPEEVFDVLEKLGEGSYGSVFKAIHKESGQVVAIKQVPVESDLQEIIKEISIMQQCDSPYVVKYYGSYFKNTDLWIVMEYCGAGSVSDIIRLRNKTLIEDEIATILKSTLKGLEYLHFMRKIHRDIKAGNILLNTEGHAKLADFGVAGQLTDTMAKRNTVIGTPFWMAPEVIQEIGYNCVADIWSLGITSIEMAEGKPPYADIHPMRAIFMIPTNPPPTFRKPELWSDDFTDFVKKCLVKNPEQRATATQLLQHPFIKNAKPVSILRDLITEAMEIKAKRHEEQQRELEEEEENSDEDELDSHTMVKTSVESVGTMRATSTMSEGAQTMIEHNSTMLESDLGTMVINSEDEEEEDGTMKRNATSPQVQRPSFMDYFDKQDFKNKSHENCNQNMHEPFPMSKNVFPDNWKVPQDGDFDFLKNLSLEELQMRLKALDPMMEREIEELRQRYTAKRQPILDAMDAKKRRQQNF

CHEK1 (human) = CHEK1 (human) (UniProt O14757)
CDK2 CCNA2 (human) = CDK2 CCNA2 (human) (UniProt P20248+P24941)
MAPK1 (human) = MAPK1 (human) (UniProt P28482)
CHEK2 (human) = CHEK2 (human) (UniProt O96017)
Chain of CHEK2 (human) (O96017 whole entry, looked up): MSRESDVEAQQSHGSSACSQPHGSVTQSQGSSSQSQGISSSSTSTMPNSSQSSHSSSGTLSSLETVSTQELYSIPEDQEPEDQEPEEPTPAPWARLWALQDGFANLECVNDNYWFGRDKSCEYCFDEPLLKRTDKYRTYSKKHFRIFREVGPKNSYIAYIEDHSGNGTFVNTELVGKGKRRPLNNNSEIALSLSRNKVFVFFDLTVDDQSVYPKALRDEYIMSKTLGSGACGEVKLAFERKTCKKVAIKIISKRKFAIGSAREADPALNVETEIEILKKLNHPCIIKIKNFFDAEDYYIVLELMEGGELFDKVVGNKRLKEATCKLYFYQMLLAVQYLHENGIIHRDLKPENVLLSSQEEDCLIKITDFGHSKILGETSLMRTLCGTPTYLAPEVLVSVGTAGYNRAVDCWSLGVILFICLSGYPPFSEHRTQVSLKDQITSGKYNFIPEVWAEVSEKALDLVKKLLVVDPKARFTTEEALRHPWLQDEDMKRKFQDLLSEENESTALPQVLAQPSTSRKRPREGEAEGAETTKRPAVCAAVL

EEF2K (human) = EEF2K (human) (UniProt O00418)
BRSK2 (human) = BRSK2 (human) (UniProt Q8IWQ3)
SRC (human) = SRC (human) (UniProt P12931)
PAK6 (human) = PAK6 (human) (UniProt Q9NQU5)

Chain of MARK3 (human) (P27448 whole entry, looked up): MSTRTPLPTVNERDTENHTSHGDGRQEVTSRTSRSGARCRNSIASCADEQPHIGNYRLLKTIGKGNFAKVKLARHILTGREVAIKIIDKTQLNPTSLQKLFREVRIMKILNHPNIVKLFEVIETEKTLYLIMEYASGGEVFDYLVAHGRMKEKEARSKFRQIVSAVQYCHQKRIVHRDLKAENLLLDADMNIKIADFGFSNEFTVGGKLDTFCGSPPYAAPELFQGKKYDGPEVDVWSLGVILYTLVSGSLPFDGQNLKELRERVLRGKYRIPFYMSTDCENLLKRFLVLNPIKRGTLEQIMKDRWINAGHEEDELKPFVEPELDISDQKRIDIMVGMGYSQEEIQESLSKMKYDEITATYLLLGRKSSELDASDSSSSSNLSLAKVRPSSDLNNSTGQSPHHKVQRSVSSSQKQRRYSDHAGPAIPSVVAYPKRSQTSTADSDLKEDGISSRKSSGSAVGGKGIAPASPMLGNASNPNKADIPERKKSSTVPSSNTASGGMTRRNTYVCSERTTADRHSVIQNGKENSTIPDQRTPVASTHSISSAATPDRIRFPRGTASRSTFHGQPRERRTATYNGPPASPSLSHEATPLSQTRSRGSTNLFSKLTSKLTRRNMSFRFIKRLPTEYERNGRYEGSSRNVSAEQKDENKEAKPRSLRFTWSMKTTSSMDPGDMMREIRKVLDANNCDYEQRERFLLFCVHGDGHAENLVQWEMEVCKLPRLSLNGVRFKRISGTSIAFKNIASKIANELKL
Chain of MST4 (human) (Q9P289 whole entry, looked up): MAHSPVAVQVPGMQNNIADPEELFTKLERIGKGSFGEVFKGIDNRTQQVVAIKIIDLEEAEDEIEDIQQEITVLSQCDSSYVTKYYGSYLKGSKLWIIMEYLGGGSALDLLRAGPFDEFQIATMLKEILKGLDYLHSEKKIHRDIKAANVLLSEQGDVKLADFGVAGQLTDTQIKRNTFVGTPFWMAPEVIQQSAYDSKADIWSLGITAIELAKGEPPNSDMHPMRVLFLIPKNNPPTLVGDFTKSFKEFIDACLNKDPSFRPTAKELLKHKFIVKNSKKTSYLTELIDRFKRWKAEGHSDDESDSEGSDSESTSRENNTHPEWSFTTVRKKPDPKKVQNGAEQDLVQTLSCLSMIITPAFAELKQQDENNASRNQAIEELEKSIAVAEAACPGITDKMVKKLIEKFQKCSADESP
Chain of PRKCZ (human) (Q05513 whole entry, looked up): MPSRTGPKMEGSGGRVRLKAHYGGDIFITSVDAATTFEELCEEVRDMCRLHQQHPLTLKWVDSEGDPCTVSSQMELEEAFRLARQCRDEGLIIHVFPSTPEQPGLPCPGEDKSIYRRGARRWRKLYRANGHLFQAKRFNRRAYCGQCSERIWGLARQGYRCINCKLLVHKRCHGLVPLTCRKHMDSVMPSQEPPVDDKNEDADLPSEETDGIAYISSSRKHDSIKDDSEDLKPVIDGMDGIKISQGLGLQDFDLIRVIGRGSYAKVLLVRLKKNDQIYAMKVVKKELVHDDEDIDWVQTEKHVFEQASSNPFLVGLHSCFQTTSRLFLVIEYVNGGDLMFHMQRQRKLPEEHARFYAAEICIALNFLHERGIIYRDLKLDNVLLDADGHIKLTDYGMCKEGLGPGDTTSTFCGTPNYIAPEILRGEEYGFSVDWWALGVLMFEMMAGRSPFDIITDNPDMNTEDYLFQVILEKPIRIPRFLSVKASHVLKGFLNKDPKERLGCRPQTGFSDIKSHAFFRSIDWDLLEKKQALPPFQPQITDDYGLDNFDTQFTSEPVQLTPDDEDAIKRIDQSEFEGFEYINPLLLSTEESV

| Structure (SMILES) | residual activity ([1]; compound 1.0 µM) [%] | residual activity ([1]; compound 10.0 µM) [%] | residual activity (MST4 (human); compound 1.0 µM) [%] | residual activity (MST4 (human); compound 10.0 µM) [%] | residual activity (RPS6KA3 KD1 KD2 (human); compound 1.0 µM) [%] | residual activity (PRKCZ (human); compound 10.0 µM) [%] | residual activity (MARK3 (human); compound 1.0 µM) [%] | residual activity (MARK3 (human); compound 10.0 µM) [%] | residual activity (PRKCA (human); compound 1.0 µM) [%] | residual activity (PRKCA (human); compound 10.0 µM) [%] | residual activity (PLK1 (human); compound 1.0 µM) [%] | residual activity (PLK1 (human); compound 10.0 µM) [%] | residual activity (RPS6KA1 KD1 KD2 (human); compound 1.0 µM) [%] | residual activity (RPS6KA1 KD1 KD2 (human); compound 10.0 µM) [%] | residual activity (RPS6KA5 KD1 KD2 (human); compound 1.0 µM) [%] | residual activity (RPS6KA5 KD1 KD2 (human); compound 10.0 µM) [%] | residual activity (FLT1 (human); compound 1.0 µM) [%] | residual activity (FLT1 (human); compound 10.0 µM) [%] | residual activity (STK3 (human); compound 1.0 µM) [%] | residual activity (STK3 (human); compound 10.0 µM) [%] | also measured |
| --- | --- | --- | --- | --- | --- | --- | --- | --- | --- | --- | --- | --- | --- | --- | --- | --- | --- | --- | --- | --- | --- |
| Cc1cc(SCc2sc(-c3ccc(C(F)(F)F)cc3)nc2C)ccc1OCC(=O)O | 111 | 109 | 104 | 83 | 94 | 74 | 93 | 91 | 96 | 88 | 75 | 60 | 106 | 113 | 96 | 92 | 84 | 74 | 97 | 122 | residual activity (PRKCZ (human); compound 1.0 µM): 79%; residual activity (MAPK3 (human); compound 1.0 µM): 115%; residual activity (CHEK1 (human); compound 1.0 µM): 102%; residual activity (CHEK1 (human); compound 10.0 µM): 120%; residual activity (CDK2 CCNA2 (human); compound 1.0 µM): 87%; residual activity (CDK2 CCNA2 (human); compound 10.0 µM): 81%; residual activity (MAPK1 (human); compound 1.0 µM): 100%; residual activity (MAPK1 (human); compound 10.0 µM): 102%; residual activity (CHEK2 (human); compound 1.0 µM): 81%; residual activity (CHEK2 (human); compound 10.0 µM): 101%; residual activity (EEF2K (human); compound 1.0 µM): 80%; residual activity (BRSK2 (human); compound 1.0 µM): 91%; residual activity (BRSK2 (human); compound 10.0 µM): 78%; residual activity (SRC (human); compound 1.0 µM): 87%; residual activity (SRC (human); compound 10.0 µM): 70%; residual activity (PAK6 (human); compound 1.0 µM): 97%; residual activity (PAK6 (human); compound 10.0 µM): 109% |
| O=C1Nc2nc(-c3c(O)cccc3OCC3CC3)cc(C3CCCNC3)c2CO1 (stereo not given) | 55 | 13 | 105 | 85 | 80 | 10 | 100 | 94 | 77 | 31 | 83 | 87 | 83 | 46 | 71 | 31 | 112 | 116 | 84 | 67 | residual activity (RPS6KA3 KD1 KD2 (human); compound 10.0 µM): 53%; residual activity (MAPK3 (human); compound 10.0 µM): 86%; residual activity (CHEK1 (human); compound 1.0 µM): 102%; residual activity (CHEK1 (human); compound 10.0 µM): 88%; residual activity (CDK2 CCNA2 (human); compound 1.0 µM): 58%; residual activity (CDK2 CCNA2 (human); compound 10.0 µM): 14%; residual activity (MAPK1 (human); compound 1.0 µM): 81%; residual activity (MAPK1 (human); compound 10.0 µM): 74%; residual activity (CHEK2 (human); compound 1.0 µM): 77%; residual activity (CHEK2 (human); compound 10.0 µM): 46%; residual activity (EEF2K (human); compound 1.0 µM): 88%; residual activity (EEF2K (human); compound 10.0 µM): 67%; residual activity (BRSK2 (human); compound 1.0 µM): 89%; residual activity (BRSK2 (human); compound 10.0 µM): 45%; residual activity (SRC (human); compound 1.0 µM): 91%; residual activity (SRC (human); compound 10.0 µM): 83%; residual activity (PAK6 (human); compound 1.0 µM): 72%; residual activity (PAK6 (human); compound 10.0 µM): 78% |
